Experiments:
[1] = Gel consistency: elastic shear modulus G′ by rheometer; type: physicochemical; details: 4.8% Isopropyl Myristate in gel, vs pure gel (Table 7)
Source text: 1. Preparation of Materials for Performance Characterization. • Characterization of rheological properties: for these characterizations, a ˜0.6 g sample of non-crosslinked SACSG should be placed in the measuring cell. In the case of mixtures obtained by the direct mode, a sample of the degassed mixture whose preparation has just been described is used. If Parts A′ and B′ which have been obtained by the indirect method are available, both Parts A′ and B′ are rehomogenised if necessary, equivalent masses of A′ and B′ are weighed and mixed with a spatula; after degassing at 20-50 mbar at room temperature until the bubbles are eliminated (about 10 minutes), a sample of the mixture may be taken and placed in the measuring cell. […]
The consistency of the gels is characterized by their elastic shear modulus, which is measured as follows: • rheometer: Thermofisher RS 6000. • Plan-Plan cell: rotor with 20 mm radius, rotor/stator gap=0.5 mm. • mode: imposed stress=10 Pa. • oscillation frequency: 1 Hz. • temperature: sample installation at 30°. • closing of the cell in two steps: 3 mm/mn until D=1.5 mm, then 0.15 mm/mn until D=0.5 mm. • temperature rise to 70° in 60 s. • measurement G′-G″ at 70° for 4000 s, return to 30°. […]

[2] = Miscibility / solubility of added substances in self-adhesive silicone gel (SASG); details: liquid in SASG

Row | SMILES | drop of G′ value [1] | miscibility with SASG [2]
1 | CCCCCCCCCCCCCC(=O)OC(C)C [Isopropyl Myristate] | 20% | –
2 | COC(=O)c1ccccc1O [Methyl Salicylate] | – | 12-15%

— US20220202624A1, “SELF-ADHESIVE SILICONE GEL LOADED WITH MICROPARTICLES, PARTICLES WITH IMPROVED ADHESION” (priority 2019, published 2022)
